Results reported in paper PMC12298351, “Novel 3,19-(N-Phenyl-3-(4-fluorophenyl)-pyrazole) Acetal of Andrographolide Promotes Cell Cycle Arrest and Apoptosis in MDA-MB-231 Breast Cancer Cells” (Pharmaceuticals, 2025).

How the values were obtained:
786-0 = details: 786-0, Renal
SNB-75 = details: SNB-75, CNS
SW-620 = details: SW-620, Colon
BT-549 = format: cell-based; details: BT-549, Breast
MALME-3M = details: Melanoma
K-562 = details: K-562, Leukemia
SF-268 = details: SF-268, CNS
UO-31 = details: UO-31, Renal
SNB-19 = format: cell-based; details: SNB-19, CNS
SK-MEL-5 = details: SK-MEL-5, Melanoma
DU-145 = details: DU-145, Prostate
MDA-MB-468 = details: MDA-MB-468, Breast
OVCAR-5 = details: OVCAR-5, Ovarian
COLO 205 = details: COLO 205, Colon
MCF7 = details: MCF7, Breast
SK-MEL-28 = details: SK-MEL-28, Melanoma
IGROV1 = details: IGROV1, Ovarian
HT29 = details: HT29, Colon
SK-OV-3 = details: SK-OV-3, Ovarian
CAKI-1 = details: CAKI-1, Renal
KM12 = details: KM12, Colon
[1] = read-out: 50% lethal concentration (LC50), Renal
[2] = read-out: 50% lethal concentration (LC50)

C=C1CCC2C3(C)COC(c4cn(-c5ccccc5)nc4-c4ccc(Cl)cc4)OC3CCC2(C)C1CC=C1C(=O)OCC1O (stereo not shown) [1g]
GI50 (SN12C; Renal): 1.67 µM
Total growth inhibition (TGI) (SN12C; Renal): 3.57 µM
CC50 (SN12C; [1]): 7.61 µM
GI50 (786-0): 1.99 µM
Total growth inhibition (TGI) (786-0): 4.17 µM
CC50 (786-0; [2]): 8.7 µM
GI50 (SNB-75): 1.69 µM
Total growth inhibition (TGI) (SNB-75): 2.87 µM
CC50 (SNB-75; [2]): 5.87 µM
Total growth inhibition (TGI) (SW-620): > 100 µM
CC50 (SW-620; [2]): > 100 µM
GI50 (BT-549): 1.49 µM
Total growth inhibition (TGI) (BT-549): 3.37 µM
GI50 (MALME-3M): 1.82 µM
Total growth inhibition (TGI) (MALME-3M): 3.41 µM
GI50 (K-562): 3.67 µM
Total growth inhibition (TGI) (K-562): > 100 µM
CC50 (K-562; [2]): > 100 µM
Total growth inhibition (TGI) (A549/ATCC; Non-Small Cell Lung): 36.3 µM
GI50 (A549/ATCC; Non-Small-Cell Lung): 3.57 µM
CC50 (A549/ATCC; read-out: 50% lethal concentration (LC50), Non-Small Cell Lung): > 100 µM
GI50 (SF-268): 2.39 µM
Total growth inhibition (TGI) (SF-268): 6.32 µM
CC50 (SF-268; [2]): > 100 µM
GI50 (UO-31): 1.99 µM
Total growth inhibition (TGI) (UO-31): 4.17 µM
CC50 (UO-31; [2]): 5.6 µM
GI50 (SNB-19): 1.4 µM
GI50 (LOX IMVI; Melanoma): 1.58 µM
Total growth inhibition (TGI) (LOX IMVI; Melanoma): 2.94 µM
CC50 (LOX IMVI; read-out: 50% lethal concentration (LC50), Melanoma): 5.48 µM
GI50 (SK-MEL-5): 1.7 µM
Total growth inhibition (TGI) (SK-MEL-5): 3.11 µM
CC50 (SK-MEL-5; [2]): 5.69 µM
GI50 (NCI/ADR-RES; Ovarian): 1.83 µM
Total growth inhibition (TGI) (NCI/ADR-RES; Ovarian): 4.24 µM
CC50 (NCI/ADR-RES; read-out: 50% lethal concentration (LC50), Ovarian): 9.87 µM
GI50 (DU-145): 2.05 µM
Total growth inhibition (TGI) (DU-145): 4.1 µM
GI50 (MDA-MB-468): 2 µM
Total growth inhibition (TGI) (MDA-MB-468): 4.49 µM
CC50 (MDA-MB-468; [2]): 6.36 µM
Total growth inhibition (TGI) (HOP-92; HOP-92, Non-Small Cell Lung): 3.08 µM
GI50 (HOP-92; HOP-92, Non-Small-Cell Lung): 1.5 µM
CC50 (HOP-92; read-out: 50% lethal concentration (LC50), HOP-92, Non-Small Cell Lung): 6.32 µM
Total growth inhibition (TGI) (NCI-H460; NCI-H460, Non-Small Cell Lung): 3.72 µM
GI50 (NCI-H460; NCI-H460, Non-Small-Cell Lung): 1.79 µM
CC50 (NCI-H460; read-out: 50% lethal concentration (LC50), NCI-H460, Non-Small Cell Lung): 7.76 µM
GI50 (ACHN; Renal): 1.89 µM
Total growth inhibition (TGI) (ACHN; Renal): 3.95 µM
CC50 (ACHN; [1]): 8.23 µM
GI50 (MDA-MB-231; MDA-MB-231, Breast): 1.68 µM
Total growth inhibition (TGI) (MDA-MB-231; MDA-MB-231/ATCC, Breast): 4.6 µM
CC50 (MDA-MB-231; read-out: 50% lethal concentration (LC50), MDA-MB-231/ATCC, Breast): 6.25 µM
GI50 (OVCAR-5): 1.98 µM
Total growth inhibition (TGI) (OVCAR-5): 5.38 µM
CC50 (OVCAR-5; [2]): > 100 µM
GI50 (COLO 205): 2.3 µM
Total growth inhibition (TGI) (COLO 205): 5.58 µM
GI50 (MCF7): 1.51 µM
Total growth inhibition (TGI) (MCF7): > 100 µM
CC50 (MCF7; [2]): 42.8 µM
GI50 (SK-MEL-28): 1.78 µM
Total growth inhibition (TGI) (SK-MEL-28): 3.36 µM
CC50 (SK-MEL-28; [2]): 6.35 µM
GI50 (IGROV1): 4.29 µM
Total growth inhibition (TGI) (IGROV1): 46.1 µM
CC50 (IGROV1; [2]): > 100 µM
GI50 (HT29): 1.69 µM
Total growth inhibition (TGI) (HT29): 4.64 µM
CC50 (HT29; [2]): > 100 µM
GI50 (SK-OV-3): 3.04 µM
Total growth inhibition (TGI) (SK-OV-3): 1.67 µM
CC50 (SK-OV-3; [2]): > 100 µM
GI50 (CAKI-1): 1.63 µM
Total growth inhibition (TGI) (CAKI-1): 3.28 µM
CC50 (CAKI-1; [2]): 6.59 µM
GI50 (KM12): 2.29 µM
Total growth inhibition (TGI) (KM12): 4.92 µM
GI50 (HS 578T; Breast): 1.75 µM
Total growth inhibition (TGI) (HS 578T; Breast): 3.24 µM
CC50 (HS 578T; read-out: 50% lethal concentration (LC50), Breast): 6.45 µM
Total growth inhibition (TGI) (NCI-H226; NCI-H226, Non-Small Cell Lung): 3.05 µM
GI50 (NCI-H226; NCI-H226, Non-Small-Cell Lung): 1.55 µM
CC50 (NCI-H226; read-out: 50% lethal concentration (LC50), NCI-H226, Non-Small Cell Lung): 5.99 µM
